Source: US12247004B2, “2-amino-N-(amino-oxo-aryl-lambda6-sulfanylidene)acetamide compounds and their therapeutic use” (Oxford Drug Design Limited, priority 2019, dated 2025)
≈ marks a conversion by molar mass, not a printed value. Where a name gives a salt, the structure may show the parent alone. Read-outs that look alike come from different tables or passages of the source.

Experiments:
[1] = Human cell viability / cytotoxicity (CellTiter-Glo, 24 hours); format: cell-based; settings: human, HepG2 cells (ATCC HB-8065); HepG2 ATCC HB-8065, 24 hours; read-out: Cytotoxicity in HepG2 ATCC HB-8065 Cell Line, IC50
Description: Study 3—Human Cell Viability
Compounds were assessed for potential non-specific cytotoxic effects against a human hepatic cell line (HepG2 ATCC HB-8065). 96-well plates were seeded with HepG2 cells in concentration of 15,000 cells per well in 100 μL of MEM growth media completed with 1% NEAA and 1% sodium pyruvate. Border wells were filled with 100 μL of sterile PBS. Two days upon cells incubation, the compounds were added. Compound dilutions were prepared in 96-well V-bottom plate in pure DMSO. Growth media from 5 plates were aspirated and replaced with 98.7 μL of fresh growth media. 1.28 μL of compounds prepared in V-bottom plates were transferred with multichannel pipette into test plates (78.1× dilution). Final DMSO concentration was 1.28% per well. In control wells, 1.28 μL of DMSO was added in 98.7 μL of media. Compounds were tested in duplicates. Cells were incubated with compounds for 24 hours when cell viability was assessed by measuring ATP levels. ATP levels were measured by adding 50 μL of CellTiter-Glo reagent to each well and after 5 minutes of incubation luminescence was measured with SpectraMax i3. The potential effect of tested compounds on cell viability was determined by comparing the signal obtained in presence of different concentrations of the compounds with those obtained in the presence of DMSO only. The potential effects were then calculated and presented as IC50 values (μg/mL).

[2] = tested on: bacteria (ATCC reference strains); experiment: Antibacterial activity, MIC by broth micro-dilution (CLSI)
[3] = biological target: Leucyl-tRNA synthetase (LeuRS) (Escherichia coli (strain K12), UniProt P07813); experiment: Leucyl-tRNA synthetase enzyme inhibition (AMP-Glo; single point % inhibition at 100 μM and IC50); format: biochemical
[4] = Acinetobacter baumannii, read-out: Antibacterial Activity (MIC), E = A. baumannii B1931
[5] = Enterobacter cloacae, read-out: Antibacterial Activity (MIC), B = Enterobacter cloacae B1966
[6] = Escherichia coli, ATCC25922, read-out: Antibacterial Activity (MIC), A = E. coli ATCC 25922
[7] = Haemophilus influenzae, ATCC49247, read-out: Antibacterial Activity (MIC), F = H. influenzae ATCC 49247
[8] = Klebsiella pneumoniae, ATCC700603, read-out: Antibacterial Activity (MIC), C = K. pneumoniae ATCC 700603
[9] = Pseudomonas aeruginosa, ATCC27853, read-out: Antibacterial Activity (MIC), D = P. aeruginosa ATCC 27853
[10] = E. coli LeuRS, read-out: Enzyme Inhibition - IC50, E. coli LeuRS
[11] = Escherichia coli, BAA2469, read-out: Antibacterial Activity (MIC), G = E. coli BAA-2469

Chain of Leucyl-tRNA synthetase (LeuRS) (P07813 whole entry, looked up): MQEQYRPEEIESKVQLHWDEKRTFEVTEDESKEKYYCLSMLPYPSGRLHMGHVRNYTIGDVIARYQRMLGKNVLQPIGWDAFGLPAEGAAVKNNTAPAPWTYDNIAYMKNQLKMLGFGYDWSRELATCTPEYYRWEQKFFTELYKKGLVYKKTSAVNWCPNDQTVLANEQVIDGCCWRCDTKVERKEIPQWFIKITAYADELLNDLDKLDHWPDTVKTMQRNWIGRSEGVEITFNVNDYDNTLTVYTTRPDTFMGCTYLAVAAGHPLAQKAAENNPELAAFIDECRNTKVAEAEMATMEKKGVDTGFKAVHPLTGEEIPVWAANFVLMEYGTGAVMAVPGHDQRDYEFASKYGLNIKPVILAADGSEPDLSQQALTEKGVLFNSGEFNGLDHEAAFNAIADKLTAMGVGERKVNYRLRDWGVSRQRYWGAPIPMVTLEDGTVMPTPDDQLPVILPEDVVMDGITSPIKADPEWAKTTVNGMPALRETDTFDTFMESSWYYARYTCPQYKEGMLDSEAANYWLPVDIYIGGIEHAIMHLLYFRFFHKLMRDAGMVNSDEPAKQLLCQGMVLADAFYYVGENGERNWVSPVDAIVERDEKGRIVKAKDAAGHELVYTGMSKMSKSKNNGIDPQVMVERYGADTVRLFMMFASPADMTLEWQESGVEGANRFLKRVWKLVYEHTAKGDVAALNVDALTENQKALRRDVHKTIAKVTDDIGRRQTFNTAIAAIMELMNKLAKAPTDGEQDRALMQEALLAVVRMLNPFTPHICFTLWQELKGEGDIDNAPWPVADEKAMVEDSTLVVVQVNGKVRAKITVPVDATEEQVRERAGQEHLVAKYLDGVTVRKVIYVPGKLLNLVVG

| Compound | IC50 at 24 h [1] [µg/mL] | MIC [2, 4] [µg/mL] | MIC [2, 5] [µg/mL] | MIC [2, 6] [µg/mL] | MIC [2, 7] [µg/mL] | MIC [2, 8] [µg/mL] | MIC [2, 9] [µg/mL] | IC50 [3, 10] [nM] | IC50 [3] [nM] | MIC [2, 11] [µg/mL] |
| --- | --- | --- | --- | --- | --- | --- | --- | --- | --- | --- |
| CC(C)C[C@H](N)C(=O)N=[S@](N)(=O)c1ccccc1.Cl [ANASIA-003-1, (S)-2-amino-N—((S)-amino(oxo)(phenyl)-λ6-sulfanylidene)-4-methylpentanamide hydrochloride] | > 64 | 64 | 16 | 4 | 8 | 16 | 64 | 61.5 |  |  |
| Cc1cccc(S(N)(=O)=NC(=O)[C@@H](N)CC(C)C)c1 (stereo partly shown) [ANASIA-005] | > 64 | 64 (≈ 226 µM) | 32 (≈ 113 µM) | 8 (≈ 28.2 µM) | 32 (≈ 113 µM) | 32 (≈ 113 µM) | > 64 | 381 |  |  |
| CC(C)C[C@H](N)C(=O)N=[S@](N)(=O)c1cccc(Oc2ccc(Cl)cc2)c1.Cl [ANASIA-047-1] | 46.5 | > 64 | > 64 | > 64 | 64 | > 64 | > 64 |  | 76.4 |  |
| CC(C)C[C@H](N)C(=O)N=S(N)(=O)c1cccc(Cl)c1 (stereo partly shown) [ANASIA-002] | > 64 | > 45.3 | > 45.3 | 2.83 (≈ 9.31 µM) | 5.66 (≈ 18.6 µM) | > 22.6 | > 64 | 110 |  |  |
| CC(C)C[C@H](N)C(=O)N=[S@](N)(=O)c1ccsc1Cl.Cl [ANASIA-092-1] | > 64 | 64 |  | 2 | 2 | 64 | > 64 |  | 48.4 | 11.3 |
| CC(C)C[C@H](N)C(=O)N=[S@](N)(=O)c1cccc(Cl)c1Cl.Cl [ANASIA-046-1] | > 64 | > 64 | > 64 | > 64 | 64 | > 64 | > 64 |  | 960 |  |
| CC(C)C[C@H](N)C(=O)N=[S@](N)(=O)c1cccc(Cl)c1.Cl [ANASIA-002-1] | > 64 | 32 | 8 | 1 | 2 | 32 | > 64 |  | 27.5 | 4 |
| Cc1csc(S(N)(=O)=NC(=O)[C@@H](N)CC(C)C)n1 (stereo partly drawn) [ANASIA-004, (2S)-2-amino-N-(amino(4-methylthiazol-2-yl)(oxo)-λ6-sulfanylidene)-4-methyl pentanamide hydrochloride] | > 64 | 64 | > 64 | 16 | 8 | > 64 | 64 | 91.6 |  |  |
| Cc1ccsc1[S@@](N)(=O)=NC(=O)[C@@H](N)CC(C)C.Cl [ANASIA-015-1] | > 64 | 64 | 16 | 2 | 8 | 16 | 64 |  | 56.5 | 5.66 |
| Cc1ccc([S@@](N)(=O)=NC(=O)[C@@H](N)CC(C)C)s1.Cl [ANASIA-014-1] | > 64 | 64 | 16 | 4 | 4 | 64 | > 64 |  | 81.1 |  |
| COc1ccsc1[S@@](N)(=O)=NC(=O)[C@@H](N)CC(C)C.Cl [ANASIA-108-1] | > 64 | > 64 |  | 8 | 32 | 64 | 64 |  | 127 | 16 |
| CC(C)C[C@H](N)C(=O)N=[S@@](N)(=O)c1cccc(Cl)c1.Cl [ANASIA-002-2] | > 64 | > 64 | > 64 | 64 | > 64 | > 64 | > 64 | 1050 |  |  |
| CC(C)C[C@H](N)C(=O)N=[S@](N)(=O)c1cccc(Cl)c1F.Cl [ANASIA-001-1] | > 64 | > 64 | > 64 | 16 | 32 | > 64 | > 64 |  | 535 |  |
| CC(C)C[C@H](N)C(=O)N=[S@](N)(=O)c1scc(Cl)c1Cl.Cl [ANASIA-081-1] | > 64 | 32 |  | 2 | 1 | 256 | > 64 |  | 33.9 | 8 |
| CC(C)C[C@H](N)C(=O)N=[S@](N)(=O)c1cc(F)ccc1F.Cl [ANASIA-024-1] | > 64 | > 64 | > 64 | 16 | 16 | > 64 | > 64 |  | 141 |  |
| CC(C)C[C@H](N)C(=O)N=[S@@](N)(=O)c1ccc(Cl)s1 [ANASIA-009-2] | > 64 | 64 (≈ 207 µM) | 32 (≈ 103 µM) | 4 (≈ 12.9 µM) | 8 (≈ 25.8 µM) | 32 (≈ 103 µM) | > 64 | 149 |  |  |
| CC(C)C[C@H](N)C(=O)N=[S@](N)(=O)c1ccsc1.Cl [ANASIA-008-1] | > 64 | 32 | 8 | 2 | 4 | 8 | 32 |  | 30.6 |  |
| CC(C)C[C@H](N)C(=O)N=S(N)(=O)c1ccsc1 (stereo partly shown) [ANASIA-008] | > 64 | 32 (≈ 116 µM) | 16 (≈ 58.1 µM) | 2 (≈ 7.26 µM) | 16 (≈ 58.1 µM) | 8 (≈ 29 µM) | 32 (≈ 116 µM) | 144 |  |  |
| CC(C)C[C@H](N)C(=O)N=S(N)(=O)c1cccc(Cl)c1F (stereo partly drawn) [ANASIA-001, (2S)-2-amino-N-(amino(3-chloro-2-fluorophenyl)(oxo)-λ6-sulfanylidene)-4-methylpentanamide 2,2,2-trifluoroacetate] | > 64 | > 64 | > 64 | 32 (≈ 99.4 µM) | > 64 | > 64 | > 64 | 429 |  |  |
| CC(C)C[C@H](N)C(=O)N=S(N)(=O)c1sccc1Cl (stereo partly shown) [ANASIA-012] | > 64 | > 64 | 64 (≈ 207 µM) | 8 (≈ 25.8 µM) | 16 (≈ 51.6 µM) | > 64 | > 64 | 155 |  | 32 (≈ 103 µM) |
